Measured values taken from patent publication US4205069A, “Dipeptide narcotic antagonists” (American Home Products Corporation, priority 1978, dated 1980).

How the values were obtained:
[1] = test system: morphine-induced analgesia; assay: Antagonism of morphine-induced analgesia, tail-flick test; assay type: in vivo, rat; details: rats, tail-flick latency >8 sec
Method: (§1) Duration of analgesia may conveniently be determined by testing for analgesia at regular intervals using a modification of the procedure of D'Amour and Smith, J. Pharmacol., 72, 74 (1941), the tail-flick test. In this test, the existence of analgesia in a rat is determined by measuring the increase in the latency period during which a rat will tolerate a high intensity light beam shining on the tip of its tail.
^a All rats were tested at 5minute intervals in the tailflick test
until latencies of 2 to 5 sec. were obtained on three consecutive trials.
All rats then received an injection of morphine sulfate (as indicated in
the table) and were returned to the tailflick test until three consecutiv
trials with no movement of the tail for 8 seconds were obtained. The rats
then received a subcutaneous injection of the test compound, or a control
injection, and were returned to the tailflick test to determine the
^b The duration score is the number of minutes the animal was
completely analgesic (tailflick latency >8 sec.) following injection of […]

[2] = test system: analgesia produced by intraventricular HTyr-D-Ala-Gly-Phe-D-Leu-NH2; assay: Antagonism of enkephalin analog-induced analgesia, tail-flick test; assay type: in vivo, rat; details: rats, HTyr-D-Ala-Gly-Phe-D-Leu-NH2 1 μg intraventricular
Method: as §1
^a The procedure is the same as in Example 11 except that analgesia
was produced by an intraventricular injection of
HTyr-D-Ala-Gly-Phe-D-Leu-NH2, 1 μg. in 10 μ1. of Ringers
^b The duration score was the same as in Table 1.

[3] = morphine sulfate 2.5 mg/kg subcutaneously, test compound 2.5 mg/kg s.c.
[4] = morphine sulfate 2.5 mg/kg subcutaneously, test compound 5 mg/kg s.c.
[5] = morphine sulfate 5 mg/kg intraperitoneally, test compound 5 mg/kg s.c.

| Compound | Mean Duration of Analgesia ([1]; morphine sulfate 2.5 mg/kg subcutaneously, test compound 1 mg/kg s.c.) [min] | Mean Duration of Analgesia [1, 3] [min] | Mean Duration of Analgesia [1, 4] [min] | Mean Duration of Analgesia [1, 5] [min] | Mean Duration of Analgesia ([2]; test compound 5 mg/kg s.c.) [min] | Mean Duration of Analgesia ([1]; morphine sulfate 5 mg/kg intraperitoneally, test compound 2.5 mg/kg s.c.) [min] | Mean Duration of Analgesia ([2]; test compound 1.25 mg/kg s.c.) [min] | Mean Duration of Analgesia ([2]; test compound 10 mg/kg s.c.) [min] |
| --- | --- | --- | --- | --- | --- | --- | --- | --- |
| C[C@@H](NC(=O)[C@@H](N)Cc1ccc(O)cc1)C(N)=O [H-Tyr-D-Ala-NH2] | > 90.00 | 55.00 | 40.00 | 41.67 | 31.0 | – | – | – |
| COC(=O)[C@@H](C)NC(=O)[C@@H](N)Cc1ccc(O)cc1 [H-Tyr-D-Ala-O-Me, H-Tyr-D-Ala-OMe] | – | 45.00 | 61.67 | 27.50 | 5.0 | 37.50 | 20.0 | 50.0 |
